What was measured:
[1] = test system: cancer cell lines not having gene mutations identified by the CRISPR screen analysis; assay: In vitro combination of itraconazole with lysosome targeting agents; format: cell-based; details: for sensitivity of cell lines to itraconazole when treated with the agent: cell lines without the CRISPR-identified mutations
[2] = test system: TOV1946 stably expressing GFP conjugated TFEB; assay: TFEB nuclear translocation; format: cell-based; details: CQ 10 μM alone or with Itra 5 μM
Experimental: FIGS. 11A-B. FIG. 11A) Top, analysis of lysosomal pattern by LAMP1 immunofluorescence and relative quantification in TOV21g treated with Itra 5 μM (15)+/−CQ 5 μM (CQ5). Bottom, Analysis of lysosomal function and relative quantification in TOV21g treated as above. FIG. 11B) Analysis and quantification of TFEB nuclear translocation in TOV1946 stably expressing GFP conjugated TFEB and treated with Itra 5 μM (5) +/−CQ 10 μM (CQ10).
Member of the microphtalmia (MiT) family (TFEB, […], TFE3) are transcription factors activated in starvation or lysosomal dysfunction conditions. Once activated, they translocate to the nucleus where they promote the expression of a network of genes related to lysosomal function and biogenesis^50.

[3] = Tissue pharmacokinetic analyses (HPLC-MS/MS) of tumour biopsies; format: in vivo, human; details: for intratumor concentration (highest): patient HYDRA-005, DL1, on-treatment biopsy; for estimated tissue concentration: patient HYDRA-005 for Itra, assuming 1 μg of tissue corresponds to 1 μl; for detection in tumour biopsies: post-treatment samples, ten patients, none of the pre-treatment samples
Experimental: Tumour assessment occurred every 8 weeks (+/−1 week) by CT scan. Toxicity was assessed by Common Terminology Criteria (CTCAE) version 4.0. Pre- and on treatment biopsies (on cycle 1, day 8 to 14) were mandatory. Tumour Itra and HCQ concentrations were determined by a HPLC-MS/MS method with itraconazole-D9 and hydroxychloroquine-D4 as the internal standard. The HPLC system was interfaced to a SCIEX TRIPLE QUAD 6500+ mass spectrometer operating in the […] electrospray ionization mode. Data collection, peak integration, and calculation were performed using Analyst® 1.7 software.

intratumor concentration (highest) [3] | estimated tissue concentration [3] [µM] | detection in tumour biopsies [3] | Structure (SMILES) | sensitivity of cell lines to itraconazole when treated with the agent [1] | other results
 |  |  | CO/C1=C\C(C)=C\[C@@H](C)[C@@H](O)[C@@H](C)C/C(C)=C/C=C/[C@H](OC)[C@@H]([C@@H](C)[C@@H](O)[C@H](C)[C@@]2(O)C[C@@H](O)[C@H](C)[C@@H](C(C)C)O2)OC1=O [Bafilomycin A] | increased sensitivity to itraconazole | effect of Itra combined with lysosome targeting agent ([1]; data not shown): combined effect
 |  |  | CCN(CC)CCCC(C)Nc1ccnc2cc(Cl)ccc12 (stereo not shown) [CQ, chloroquine] |  | TFEB nuclear translocation, cells [2]: about 50%
3.5 ng/mg of tissue | 5 to 10 | detectable in all patients | CCN(CCO)CCCC(C)Nc1ccnc2cc(Cl)ccc12 (stereo not shown) [HCQ, hydroxychloroquine] |  | 
0.745 ng/mg of tissue | ≤ 1 | detectable in all patients | CCC(C)n1ncn(-c2ccc(N3CCN(c4ccc(OCC5COC(Cn6cncn6)(c6ccc(Cl)cc6Cl)O5)cc4)CC3)cc2)c1=O (stereo not shown) [Itra, Itraconazole] |  | 
 |  |  | CC/C(=C(\c1ccccc1)c1ccc(OCCN(C)C)cc1)c1ccccc1 [tamoxifen] | increased sensitivity to itraconazole | 

Reference: patent publication US20220401438A1, “CANCER THERAPEUTIC METHODS” (University Health Network, priority 2021, published 2022)
